Experimental data published in patent US20250206761A1, “HALOINDOLE MACROCYCLIC COMPOUNDS FOR THE TREATMENT OF CANCER” (Hoffmann-La Roche Inc., priority 2022, published 2025).

Key:
KRAS G12C-BRAF complex = KRAS G12C-BRAF complex (Homo sapiens (Human), UniProt P01116+P62937, G12C); test: KRAS-BRAF with CYPA (500 nM) interaction assay (TR-FRET), G12C; assay type: biochemical
Experimental: (§1) In this example, TR-FRET was also used to measure the compound or compound-CYPA dependent disruption of the KRAS G12C-BRAF complex. This protocol was also used to measure disruption of KRAS G12D or KRAS G12V binding to BRAF by a compound of the invention, respectively. In assay buffer containing 25 mM HEPES PH=7.4 (4-(2-hydroxyethyl)-1-piperazineethanesulfonic acid, Thermo, 15630080), 0.002% Tween20, 0.1% BSA, 100 mM NaCl, 5 mM MgCl2, 10 μM GMPPNP (Guanosine 5′-[β,γ-imido]triphosphate trisodium salt hydrate, Sigma, G0635), […] 384-well assay plate at final concentrations of 50 nM, 6.25 nM and 1 nM, respectively. Compound was present in plate wells as a 16-point 3-fold dilution series starting at a final concentration of 10 μM and incubated for 3 hours. A mixture of MAb Anti-6His-XL665 (Cisbio, 61HISXLB) and Mab anti-GST-TB cryptate (Cisbio, 61GSTTLB) was then added at a final concentration of 6.67 nM and 0.21 nM, respectively, and the plate was incubated for an additional 1.5 hours. TR-FRET signal was read on a PHERstar FSX microplate reader (Ex320 nm, Em 665/615 nm). Compounds that facilitate disruption of the KRAS-BRAF complex were identified as those eliciting a decrease in the TR-FRET ratio relative to DMSO control wells.

[1] = test system: phosphorylation of ERK, KRAS G12V in SW620; test: pERK inhibition assay, KRAS G12V; assay type: cell-based, human; details: Homo sapiens, SW-620, SW620, 4 hours
Experimental: (§2) This assay is to measure the ability of test compounds in inhibiting the phosphorylation of ERK, the downstream signaling of KRAS G12C in NCJ-H358 cells, KRAS G12D in AGS cells, and KRAS G12V in SW620. NCJ-H358 (ATCC-CRL5807) cells, AGS (ATCC-CRL-1739) cells, SW620 (ATCC-CCL-227) cells were all grown and maintained using RPMI-1640 medium (Thermo Fisher Scientific) with 10% fetal bovine serum and 1% penicillin/streptomycin. On the day prior to compound addition, cells were plated in tissue culture-treated 96 well plates (Corning-3699) at a density of 30,000 cell/well, 20,000 cell/well, 30,000 cell/well for NCJ-H358, AGS and SW620 respectively, and allowed for attachment overnight. Diluted compounds were then added in a final concentration of 0.5% DMSO. After 4 hours of incubation, the medium was removed, 100 μL of 4% formaldehyde was added, and the assay plates were incubated at room temperature for 20 minutes. The plates were then washed once with phosphate buffered saline (PBS), and permeabilized with 100 μL of chilled methanol for 10 minutes. Non-specific antibody binding to the plates was blocked using 50 μL 1×BSA blocking buffer (Thermo-37520, 10-fold dilution by Phosphate-Buffered Saline Tween (PBST) for at least 1 hour at room temperature.
(§3) The amount of phosphor-ERK was determined using an antibody specific for phosphorylated form of ERK. Primary antibody (pERK, CST-4370, Cell Signaling Technology) was diluted 1:300 in blocking buffer, with 50 μL aliquoted to each well, and incubated overnight at 4′° C. Cells was washed five times for 5 minutes with PBST. Secondary antibody ([…] anti-rabbit IgG, CST-7074, Cell Signaling Technology) was diluted 1:1000 in blocking buffer, and 50 μL was added to each well and incubated 1-2 hrs at room temperature. Cells was washed 5 times for 5 minutes with PBST, 100 μL TMB ELISA substrate (abcam-ab171523) were added and gently shake for 20 minutes. 50 μL stop solution (abcam-ab171529) were added, and then read the signal (OD450) by EnVision.
(§4) IC50 was determined by fitting a 4-parameter sigmoidal concentration response model.

[2] = test system: AGS (ATCC-CRL-1739) cells; test: Cell viability assay, G12D (AGS); assay type: cell-based, human; details: Homo sapiens, KRAS cell viability, 72 hrs, Cell Counting Kit-8
Experimental: (§5) The purpose of this cellular assay was to determine the effects of test compounds on the proliferation of human cancer cell lines NCI-H358 (ATCC-CRL5807) cells, AGS (ATCC-CRL-1739) cells, SW620 (ATCC-CCL-227) over a 3-day treatment period by quantifying the amount of NADPH present at endpoint using Cell Counting Kit-8.
(§6) Cells were seeded at 5,000 cells/well (NCI-H358), 2,000 cells/well (AGS) 2,000 cells/well (SW620) in 96-well assay plates (Corning-3699) and incubated overnight. On the day of the assay, diluted compounds were then added in a final concentration of 0.5% DMSO. After 72 hrs incubation, a tenth of the volume of cell counting kit 8 (Dnjindo-CK04) was added into each well. Read the signal (OD450 minus OD650) using EnVision after 2 hrs incubation. IC50 was determined by fitting a 4-parameter sigmoidal concentration response model.

[3] = test system: phosphorylation of ERK, KRAS G12C in NCJ-H358 cells; test: pERK inhibition assay, KRAS G12C; assay type: cell-based, human; details: Homo sapiens, 4 hours
Experimental: as §2, §3, §4

[4] = target: KRAS G12D binding to BRAF (Homo sapiens (Human), UniProt P01116+P62937, G12D); test: KRAS-BRAF with CYPA (500 nM) interaction assay (TR-FRET), G12D; assay type: biochemical
KRAS G12D binding to BRAF, sequence (P01116-2 other isoform, or with tags, fused parts or gaps G12D): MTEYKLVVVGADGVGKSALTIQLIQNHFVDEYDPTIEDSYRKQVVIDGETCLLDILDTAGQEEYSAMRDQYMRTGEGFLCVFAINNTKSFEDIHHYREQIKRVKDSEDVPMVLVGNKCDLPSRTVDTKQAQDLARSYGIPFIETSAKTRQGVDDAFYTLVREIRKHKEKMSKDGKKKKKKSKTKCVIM
KRAS G12D binding to BRAF, sequence (P62937 whole entry): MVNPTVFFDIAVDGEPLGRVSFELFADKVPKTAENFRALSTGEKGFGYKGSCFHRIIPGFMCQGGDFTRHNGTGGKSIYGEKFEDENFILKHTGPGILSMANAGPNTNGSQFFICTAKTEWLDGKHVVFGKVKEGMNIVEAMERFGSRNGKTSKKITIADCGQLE
Experimental: as §1

[5] = test system: NCI-H358 (ATCC-CRL5807) cells; test: Cell viability assay, G12C (NCI-H358); assay type: cell-based, human; details: Homo sapiens; KRAS cell viability, NCI-H358, 72 hrs, Cell Counting Kit-8
Experimental: as §5, §6

SW620 (ATCC-CCL-227) = test: Cell viability assay, G12V (SW620); assay type: cell-based, human; details: Homo sapiens, SW-620; KRAS cell viability, SW620, 72 hrs, Cell Counting Kit-8
Experimental: as §5, §6

[6] = target: KRAS G12V binding to BRAF (Homo sapiens (Human), UniProt P01116+P62937, G12V); test: KRAS-BRAF with CYPA (500 nM) interaction assay (TR-FRET), G12V; assay type: biochemical
KRAS G12V binding to BRAF, sequence (P01116-2 other isoform, or with tags, fused parts or gaps G12V): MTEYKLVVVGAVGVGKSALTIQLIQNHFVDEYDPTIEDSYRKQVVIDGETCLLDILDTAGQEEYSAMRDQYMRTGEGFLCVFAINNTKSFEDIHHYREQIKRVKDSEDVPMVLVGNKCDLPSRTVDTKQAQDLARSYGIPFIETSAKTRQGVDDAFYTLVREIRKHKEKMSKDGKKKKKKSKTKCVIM
KRAS G12V binding to BRAF, sequence (P62937 whole entry): as the sequence (P62937 whole entry) above
Experimental: In this example, TR-FRET was also used to measure the compound or compound-CYPA dependent disruption of the KRAS G12C-BRAF complex. This protocol was also used to measure disruption of KRAS G12D or KRAS G12V binding to BRAF by a compound of the invention, respectively. In assay buffer containing 25 mM HEPES PH=7.4 (4-(2-hydroxyethyl)-1-piperazineethanesulfonic acid, Thermo, 15630080), 0.002% Tween20, 0.1% BSA, 100 mM NaCl, 5 mM MgCl2, 10 μM GMPPNP (Guanosine 5′-[β,γ-imido]triphosphate trisodium salt hydrate, Sigma, G0635), […], GMPPNP loaded 6His-KRAS proteins, and […], 6.25 nM and 1 nM, respectively. Compound was present in plate wells as a 16-point 3-fold dilution series starting at a final concentration of 10 μM and incubated for 3 hours. A mixture of MAb Anti-6His-XL665 (Cisbio, 61HISXLB) and Mab anti-GST-TB cryptate (Cisbio, 61GSTTLB) was then added at a final concentration of 6.67 nM and 0.21 nM, respectively, and the plate was incubated for an additional 1.5 hours. TR-FRET signal was read on a PHERstar FSX microplate reader (Ex320 nm, Em 665/615 nm). Compounds that facilitate disruption of the KRAS-BRAF complex were identified as those eliciting a decrease in the TR-FRET ratio relative to DMSO control wells.

KRAS G12C-BRAF complex, sequence (P01116-2 other isoform, or with tags, fused parts or gaps G12C): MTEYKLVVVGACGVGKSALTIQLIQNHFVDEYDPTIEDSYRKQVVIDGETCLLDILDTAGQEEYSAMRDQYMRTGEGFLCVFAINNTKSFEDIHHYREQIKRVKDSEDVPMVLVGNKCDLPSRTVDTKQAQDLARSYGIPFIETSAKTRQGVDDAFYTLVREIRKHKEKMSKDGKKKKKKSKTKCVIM
KRAS G12C-BRAF complex, sequence (P62937 whole entry): as the sequence (P62937 whole entry) above

CCn1c(-c2cc(N3CCN(C)CC3)cnc2[C@H](C)OC)c2c3cc(c(F)cc31)-c1csc(n1)C[C@H](NC(=O)[C@H](C(C)C)N1CCCC3(CCN(C(=O)[C@H](F)Cl)CC3)C1=O)C(=O)N1CCC[C@H](N1)C(=O)OCC(C)(C)C2 (atropisomer, axis not shown; (M)) [Example 36, (2S)-2-[9-[(2R)-2-chloro-2-fluoro-acetyl]-1-oxo-2,9-diazaspiro[5.5]undecan-2-yl]-N-[(7S,13S)-21-ethyl-24-fluoro-(20M)-20-[2-[(1S)-1-methoxyethyl]-5-(4-methylpiperazin-1-yl)-3-pyridyl]-17,17-dimethyl-8,14-dioxo-15-oxa-4-thia-9,21,27,28-tetrazapentacyclo[17.5.2.1^2,5.1^9,13.0^22,26]octacosa-1(25),2,5(28),19,22(26),23-hexaen-7-yl]-3-methyl-butanamide]
IC50 (KRAS G12C-BRAF complex): 38 nM | IC50 [1]: 13 nM | IC50 [2]: 30 nM | IC50 [3]: 3 nM | IC50 [4]: 3940 nM | IC50 [5]: < 1 nM | IC50 (SW620 (ATCC-CCL-227)): 132 nM | IC50 [6]: > 10000 nM

CCn1c(-c2cc(N3CCN(CC(F)(F)F)CC3)cnc2[C@H](C)OC)c2c3cc(c(F)cc31)-c1csc(n1)C[C@H](NC(=O)[C@H](C(C)C)N1CCC3(CCN(C(=O)[C@H](F)Cl)CC3)C1=O)C(=O)N1CCC[C@H](N1)C(=O)OCC(C)(C)C2 (atropisomer, axis not shown; (M)) [Example 39, (2S)-2-[8-[(2R)-2-chloro-2-fluoro-acetyl]-1-oxo-2,8-diazaspiro[4.5]decan-2-yl]-N-[(7S,13S)-21-ethyl-24-fluoro-(20M)-20-[2-[(1S)-1-methoxyethyl]-5-[4-(2,2,2-trifluoroethyl)piperazin-1-yl]-3-pyridyl]-17,17-dimethyl-8,14-dioxo-15-oxa-4-thia-9,21,27,28-tetrazapentacyclo[17.5.2.1^2,5.1^9,13.0^22,26]octacosa-1(25),2,5(28),19,22(26),23-hexaen-7-yl]-3-methyl-butanamide]
IC50 (KRAS G12C-BRAF complex): 104 nM | IC50 [1]: 44 nM | IC50 [2]: 112 nM | IC50 [3]: 6 nM | IC50 [4]: > 10000 nM | IC50 [5]: < 1 nM | IC50 (SW620 (ATCC-CCL-227)): 184 nM | IC50 [6]: > 10000 nM

CCn1c(-c2cc(N3CCN(C)CC3)cnc2[C@H](C)OC)c2c3cc(c(F)cc31)-c1csc(n1)C[C@H](NC(=O)[C@@H](COC1CN(C(=O)[C@H](F)Cl)C1)C(C)C)C(=O)N1CCC[C@H](N1)C(=O)OCC(C)(C)C2 (atropisomer, axis not shown; (M)) [Example 40, (2R)-2-[[1-[(2R)-2-chloro-2-fluoro-acetyl]azetidin-3-yl]oxymethyl]-N-[(7S,13S)-21-ethyl-24-fluoro-(20M)-20-[2-[(1S)-1-methoxyethyl]-5-(4-methylpiperazin-1-yl)-3-pyridyl]-17,17-dimethyl-8,14-dioxo-15-oxa-4-thia-9,21,27,28-tetrazapentacyclo[17.5.2.1^2,5.1^9,13.0^22,26]octacosa-1(25),2,5(28),19,22(26),23-hexaen-7-yl]-3-methyl-butanamide]
IC50 (KRAS G12C-BRAF complex): 108 nM | IC50 [1]: 23 nM | IC50 [2]: 1110 nM | IC50 [3]: 10 nM | IC50 [4]: > 10000 nM | IC50 [5]: < 1 nM | IC50 (SW620 (ATCC-CCL-227)): 63 nM | IC50 [6]: > 10000 nM

CO[C@@H](C)c1ncc(N2CCN(CC(F)(F)F)CC2)cc1-c1c2c3cc(c(F)cc3n1CC(F)(F)F)-c1csc(n1)C[C@H](NC(=O)[C@H](C(C)C)N1CCCC3(CCN(C(=O)[C@H](F)Cl)CC3)C1=O)C(=O)N1CCC[C@H](N1)C(=O)OCC(C)(C)C2 (atropisomer, axis not shown; (M)) [Example 42, (2S)-2-[9-[(2R)-2-chloro-2-fluoro-acetyl]-1-oxo-2,9-diazaspiro[5.5]undecan-2-yl]-N-[(7S,13S)-24-fluoro-(20M)-20-[2-[(1S)-1-methoxyethyl]-5-[4-(2,2,2-trifluoroethyl)piperazin-1-yl]-3-pyridyl]-17,17-dimethyl-8,14-dioxo-21-(2,2,2-trifluoroethyl)-15-oxa-4-thia-9,21,27,28-tetrazapentacyclo[17.5.2.1^2,5.1^9,13.0^22,26]octacosa-1(25),2,5(28),19,22(26),23-hexaen-7-yl]-3-methyl-butanamide]
IC50 (KRAS G12C-BRAF complex): 73 nM | IC50 [1]: 24 nM | IC50 [2]: 44 nM | IC50 [3]: 3 nM | IC50 [4]: 3970 nM | IC50 [5]: < 1 nM | IC50 (SW620 (ATCC-CCL-227)): 82 nM | IC50 [6]: 7860 nM
